≈ marks a conversion by molar mass, not a printed value.
Key:
[1] = tested on: mice; assay: Acute intravenous toxicity (LD50); assay type: in vivo; settings: one intravenous dose, observed for 14 days
Experimental: (§1) The acute intravenous toxicity of 3,5-dibromo-2,6-dinitrobenzoic acid in mice is assessed by determining the mean lethal dose (LD50) using a well-known method. Mice are fed a standard laboratory diet for 8-10 weeks. Five animals of each sex are administered one intravenous dose of 3,5-dibromo-[…] acid. The animals are observed for 14 days, and the number of deaths noted.

[2] = tested on: Candida albicans; assay: Relative in vitro efficacy (growth inhibition of Candida albicans on agar replicate plates); assay type: cell-based; settings: 100-150 cells of Candida albicans plated on replicate agar plates containing 15 μg of compound
Experimental: These relative efficacy numbers were obtained by plating 100-150 cells of Candida albicans on replicate agar plates containing 15 μg of the named compound and by determining the relative growth inhibition of each compound.

[3] = tested on: Candida albicans; assay: In Vitro fungicidal test (number of colonies/plate); settings: for Number of Colonies/Plate, Plate No. 1 / Number of Colonies/Plate, Plate No. 2 / Number of Colonies/Plate, Plate No. 3 / Number of Colonies/Plate, Plate No. 4 / Number of Colonies/Plate, Plate No. 5 / Number of Colonies/Plate, Plate No. 6 / Number of Colonies/Plate, Plate No. 7 / Number of Colonies/Plate, Plate No. 8 / Number of Colonies/Plate, Plate No. 9: drug final concentration 0.1 mg/ml, 80 min at 30° C., plates 48 hours; for Number of Colonies/Plate, Plate No. 1: plate 1; for Number of Colonies/Plate, Plate No. 2: plate 2; for Number of Colonies/Plate, Plate No. 3: plate 3; for Number of Colonies/Plate, Plate No. 4: plate 4; for Number of Colonies/Plate, Plate No. 5: plate 5; for Number of Colonies/Plate, Plate No. 6: plate 6; for Number of Colonies/Plate, Plate No. 7: plate 7; for Number of Colonies/Plate, Plate No. 8: plate 8; for Number of Colonies/Plate, Plate No. 9: plate 9
Experimental: The 10% wlw malt extract, 2% agar solution used for plating in this test was prepared by mixing 100 g malt extract, 20 g agar, and a pellet of sodium hydroxide (about 0.1 g) in 1 liter of distilled, deionized water (DDW). This solution was sterilized by autoclaving, and then poured into plates.
The yeast-malt (YM) broth was composed of 3 g yeast extract, 3 g malt extract, 5 g peptone, and 10 g glucose in 1 liter DDW. The solution was brought to pH 7.2 with inorganics (e.g., hydrochloric acid or sodium hydroxide), then sterilized by autoclaving.
Stock solutions of the drugs to be tested were made in a mixture of dimethylformamide (DMF) and 0.05 M phosphate buffer at pH 7.2, combined in a 4:6 ratio of DME to buffer. Test solutions of 1 mg/ml solutions were prepared.
Two control solutions were prepared. One was the phosphate buffer as described above, the other was a mixture of DMF and the buffer in a 4:6 ratio as described above.
All drug and control solutions were sterilized by filtration through a 0.2 g filter.

[4] = tested on: Candida albicans; assay: Serial Dilution Assay, Candida albicans; assay type: cell-based; settings: 24 hours at 30°, OD 600 nm
Experimental: (§2) Serial dilution assays of 3,5-dibromo-2,6-dinitrobenzoic acid and nystatin were performed on Candida albicans, Trichophyton or Asperigillus. 9 ml (1×10^4 cells) of each diluted yeast suspension was added to 1 ml of various serial dilutions of the drug to be tested in 15 ml centrifuge tubes. The final drug concentrations ranged from 0.1 to 0.0001 mg/ml. Two control tubes were also prepared using DDW instead of a drug solution. The tubes were capped and incubated for 24 hours at 30° with shaking at 200 rpm. The fungal growth was assessed by measuring optical density at 600 nm using a nephelometer.

[5] = tested on: Trichophyton; assay: Serial Dilution Assay, Trichophyton; assay type: cell-based; settings: 24 hours at 30°, OD 600 nm
Experimental: as §2

[6] = tested on: Asperigillus; assay: Serial Dilution Assay, Aspergillus; assay type: cell-based
Experimental: as §2

[7] = Acute intravenous toxicity (LD50); assay type: in vivo; settings: mouse, in vivo; mice, one intravenous dose, observed for 14 days
Experimental: as §1

[8] = tested on: Pneumocystis carinii; assay: Pneumocystis carinii short term culture, viability by incorporation of [3H] para-aminobenzoic acid; assay type: cell-based; settings: fungus removed from rat lungs, read-out: IC50 against Pneumocystis carinii
Experimental: (§3) In comparison, the IC50 of pentamidine, the agent now widely used to counter P. carinii fungus infections, was 2 μg/ml.

[9] = Water solubility; assay type: physicochemical; settings: in words
[10] = tested on: bacteria; assay: Activity against bacteria, second independent laboratory (standard agar dilution method); assay type: cell-based; settings: Isosensitest agar
Experimental: (§4) The second laboratory compared the minimum inhibitory concentrations (μg/ml) of 3,5-dichloro-2,6-dinitrobenzoic acid and Amphotericin B, an antifungal agent. The strains were plated, in the standard agar dilution method, on Isosensitest agar containing a single antifungal agent. […] As such, when Amphotericin B is tested in agar, its activity appears higher than it would in vivo.

[11] = tested on: wide range of fungi; assay: Minimum inhibitory concentration, second independent laboratory (standard agar dilution method), fungi; assay type: cell-based; settings: Isosensitest agar
Experimental: as §4

[12] = tested on: C. albicans C316; assay: Stability and activity against C. albicans C316 in various broth media; assay type: cell-based; settings: even in the presence of 50% mouse serum
Experimental: as §3

[13] = tested on: nine fungal strains (Candida spp., Cryptococcus neoformans, Aspergillus fumigatus); assay: Minimum inhibitory concentration, first independent laboratory (broth); assay type: cell-based; settings: HR/Mops broth and Sabouraud dextrose broth
Experimental: Additional in vitro evaluation of the antifungal activity of the compounds was performed by two independent testing laboratories. One laboratory found the minimum inhibitory concentration (μg/ml), in fungal strains, of 3,5-dichloro-2,6-dinitrobenzoic acid to range from 1.56 to 6.3 when nine fungal strains (Candida spp., Cryptococcus neoformans, Aspergillus fumigatus) were tested in HR/Mops broth and Sabouraud dextrose broth.

[14] = tested on: mice; settings: mouse, in vivo; cited from earlier work
[15] = read-out: final concentration at which fungal growth was completely inhibited

Molecule: 2,4-dibromo-3,5-dinitrobenzoic acid
- LD50 [1]: 240 mg/kg

Molecule: O=C(O)c1cc([N+](=O)[O-])c(Cl)c([N+](=O)[O-])c1Cl [2,4-dicholoro-3,5-dinitro benzoic acid]
- Relative In Vitro Efficacy [2]: 10

Molecule: C[C@@H]1[C@H](O)[C@@H](C)/C=C/C=C/C=C/C=C/C=C/C=C/C=C/[C@H](O[C@@H]2O[C@H](C)[C@@H](O)[C@H](N)[C@@H]2O)C[C@@H]2O[C@](O)(C[C@@H](O)C[C@@H](O)[C@H](O)CC[C@@H](O)C[C@@H](O)CC(=O)O[C@H]1C)C[C@H](O)[C@H]2C(=O)O [Amphotericin B, amphotericin B]
- Number of Colonies/Plate, Plate No. 1 [3]: 50
- Number of Colonies/Plate, Plate No. 2 [3]: 15
- Number of Colonies/Plate, Plate No. 3 [3]: 9
- Number of Colonies/Plate, Plate No. 4 [3]: 56
- Number of Colonies/Plate, Plate No. 5 [3]: 51
- Number of Colonies/Plate, Plate No. 6 [3]: 48
- Number of Colonies/Plate, Plate No. 7 [3]: 55
- Number of Colonies/Plate, Plate No. 8 [3]: 65
- Number of Colonies/Plate, Plate No. 9 [3]: 64

Molecule: O=C(O)c1c([N+](=O)[O-])c(Br)cc(Br)c1[N+](=O)[O-] [Example 1, 3,5-dibromo-2,6-dinitrobenzoic acid]
- MIC [4, 15]: 1.5 µg/mL (≈ 4.06 µM)
- MIC [5, 15]: 1.5 µg/mL (≈ 4.06 µM)
- MIC ([6]; 24 h, read-out: final concentration at which fungal growth was completely inhibited): 1.5 µg/mL (≈ 4.06 µM)
- LD50 at 336 h [7]: ~240 mg/kg
- Relative In Vitro Efficacy [2]: 100

Molecule: O=C(O)c1c([N+](=O)[O-])c(Cl)cc(Cl)c1[N+](=O)[O-] [Example 2, 3,5-dichloro-2,6-dinitrobenzoic acid]
- IC50 [8]: 17 µg/mL (≈ 60.5 µM)
- water solubility [9]: water soluble
- activity against bacteria [10]: not against bacteria
- Number of Colonies/Plate, Plate No. 1 [3]: 22
- Number of Colonies/Plate, Plate No. 2 [3]: 4
- Number of Colonies/Plate, Plate No. 3 [3]: 3
- Number of Colonies/Plate, Plate No. 4 [3]: 31
- Number of Colonies/Plate, Plate No. 5 [3]: 28
- Number of Colonies/Plate, Plate No. 6 [3]: 33
- Number of Colonies/Plate, Plate No. 7 [3]: 20
- Number of Colonies/Plate, Plate No. 8 [3]: 19
- Number of Colonies/Plate, Plate No. 9 [3]: 25
- fungicidal activity relative to amphotericin B ([3]; from Table 2): about twice as effective as amphotericin B
- fungicidal activity relative to ketoconazole ([3]; from Table 2): about four times as effective as ketoconazole
- Relative In Vitro Efficacy [2]: 100
- fungal inhibition compared with Amphotericin B ([11]; agar-plate conditions optimized for Amphotericin B): less fungal inhibition than Amphotericin B
- MIC ([11]; wide range of fungi): 4 to 31 µg/mL (≈ 14.2 to 110 µM)
- stability and activity against C. albicans C316 [12]: remained stable and active
- MIC [13]: 1.56 to 6.3 µg/mL (≈ 5.55 to 22.4 µM)

Molecule: COC(=O)c1c([N+](=O)[O-])c(Br)cc(Br)c1[N+](=O)[O-] [Example 4, methyl 3,5-dibromo-2,6-dinitrobenzoate]
- Relative In Vitro Efficacy [2]: 4

Molecule: CC(=O)N1CCN(c2ccc(OCC3COC(Cn4ccnc4)(c4ccc(Cl)cc4Cl)O3)cc2)CC1 (centres unmarked) [Ketoconazole, ketoconazole]
- Number of Colonies/Plate, Plate No. 1 [3]: 82
- Number of Colonies/Plate, Plate No. 2 [3]: 39
- Number of Colonies/Plate, Plate No. 3 [3]: 37
- Number of Colonies/Plate, Plate No. 4 [3]: 94
- Number of Colonies/Plate, Plate No. 5 [3]: 103
- Number of Colonies/Plate, Plate No. 6 [3]: 78
- Number of Colonies/Plate, Plate No. 7 [3]: 120
- Number of Colonies/Plate, Plate No. 8 [3]: 122
- Number of Colonies/Plate, Plate No. 9 [3]: 95

Molecule: C[C@@H]1[C@H](O)[C@@H](C)/C=C/C=C/CC/C=C/C=C/C=C/C=C/C(O[C@H]2O[C@H](C)[C@@H](O)[C@H](N)[C@@H]2O)CC2O[C@](O)(CC(O)C(O)CCC(O)CC(O)CC(O)CC(=O)O[C@H]1C)CC(O)C2C(=O)O (some centres unmarked) [nystatin, reference compound]
- final concentration at which fungal growth was completely inhibited [4]: 1.5 µg/mL
- final concentration at which fungal growth was completely inhibited [5]: 1.5 µg/mL
- final concentration at which fungal growth was completely inhibited ([6]; Asperigillus, 24 hours at 30°, OD 600 nm): 1.5 µg/mL
- toxicity compared with the compound of the invention tested [14]: significantly higher toxicity than the compound of the invention tested

Molecule: N=C(N)c1ccc(OCCCCCOc2ccc(C(=N)N)cc2)cc1 [pentamidine, reference compound]
- IC50 [8]: 2 µg/mL (≈ 5.87 µM)
